One assay relates to CAR-SZ17 fusion. Description: Degradation of CAR-SZ17 fusion in Jurkat cells. The assay is classed as cell-based. As to conditions: degron directly fused to the CAR. As to the method: The ability of the STUD to degrade a CAR in Jurkat cells was tested by generating a CAR construct with SynZIP17 fused to its C-terminus. However, while these STUDs worked to some extent, none of them were able to completely knockdown CAR expression (see FIG. 8).

Assay [1] has as its system proteasomal and lysosomal degradation pathways. Description: Inhibitor assays: rescue of GFP fluorescence in Jurkat T cells expressing STUD and GFP target. The format is cell-based. The following applies: 5 μM MG-132, 1 μM MLN4924 or 100 nM Bafilomycin A1; 37 C for 5 hours; cells expressing functional STUD and GFP target. The protocol: 72 hours after removal of lentivirus, the Jurkat T cells and an untransduced control cell line were treated with either 5 μM of the proteasomal inhibitor MG-132, 1 μM of the cullin ring ligase inhibitor MLN4924, 100 nM of the lysosomal inhibitor Bafilomycin A1, or DMSO vehicle control and incubate at 37 C for 5 hours. Using flow cytometry to measure GFP fluorescence following treatment, it was observed that GFP fluorescence can indeed be rescued with MG-132 and MLN4924 when cells express both a functional STUD and a GFP target relative to DMSO vehicle control.
Inhibitor Assays: 100,000 cells were plated in a 96 well round bottom plate with either 5 μM MG-132 (Sigma-Aldrich #M7449-200UL), 1 μM MLN4924 (Active Biochem #A-1139), 100 nM Bafilomycin A1 (Enzo Life Sciences #BML-CM110-0100), or DMSO vehicle control and incubated at 37 C for 5 hours. After incubation, cells were pelleted by centrifugation at 400×g for 4 minutes. Supernatant was then removed and cells were washed once with 200 μL PBS. Cells were pelleted again (400×g for 4 minutes) and resuspended in flow buffer (PBS+2% FBS) for assay by flow cytometry.

For the next assay, the system named is proteasome. Description: MG132 proteasome inhibitor treatment of primary human CD4+ T cells expressing GFP nanobody STUD. The following applies: 5 uM MG132, three hours; cells expressing functional nanobody STUD (nanobody(K->R)+Bonger) only. The format is cell-based. The protocol: The mechanism of how the STUD reduces GFP was explored. Primary human CD4+ T cells expressing the GFP nanobody STUD were fed with the MG132 proteasome inhibitor and the change in fluorescence was measured over time. Cells expressing a functional STUD should display an increase in fluorescence over time as the proteasome inhibitor took effect.
Using proteasome inhibitor to explore cytosolic GFP mechanism: To ascertain the mechanism by which the STUD degrades cytosolic GFP, the cells were inoculated with 5 uM of the proteasome inhibitor MG132 for 1 and 3 hours. Cells were then washed with PBS and analyzed by flow cytometry. Using the same 2-plasmid system as described above, changes in GFP fluorescence relative to controls were measured.

A further assay relates to NALM6 target cells. The experiment in a line: MLN dose response: ON switch CAR, lysis of NALM6 target cells by CD8+ primary human T cells. The assay is classed as cell-based. As to conditions: MLN4924 1 μM to 0.015625 μM; 72 hours at 37 C; antiCD19BBz CAR fused to SynZip plus memSTUD. As to the method:
CD8+ primary human T cells were engineered with an antiCD19BBz CAR fused to a SynZip and a memSTUD that binds the SynZip using the same plasmids outlined in FIG. 14A by lentiviral transduction. As a control, CD8+ primary human T cells were lentivirally transduced with an antiCD19BBz and a SynZip memSTUD which cannot bind the CAR. These engineered cells and an untransduced control were cocultured with NALM6 target cells for 72 hours at 37 C in the presence of MLN4924 ranging from 1 μM to 0.015625 μM and a DMSO vehicle control. After coculture, target cell lysis was assayed by flow cytometry. Specific target cell lysis of each cell line relative to NALM6 cells cultured alone in the same conditions was then calculated.
Co-culture assays: For all assays, T cells and target cells were co-cultured at a 1:1 ratio with cell numbers varying per assay. All assays contained between 10,000 and 50,000 of each cell type. The Countess II Cell Counter (ThermoFisher) was used to determine cell counts for all assays set up. T cells and target cells were mixed in 96-well round bottom tissue culture plates in 200 μL T cell media, and then plates were centrifuged for 1 min at 400×g to initiate interaction of the cells prior to incubation at 37 C.
MLN dose response: 25,000 CD8+ primary human T cells were seeded into 96 well round bottom plates in 100 μL fresh media. […]

The next assay concerns cullin ring ligase. Description: MLN4924 rescue of STUD knockdown of CD19BBz CAR expression in CD8+ primary T cells. As to conditions: 1 μM MLN4924 for 5 hours at 37 C; CD19BBz CAR with STUD. The format is cell-based, human.
In the next assay the target is GFP-SZ17 [GFP: P42212]. The experiment in a line: cell-based or functional assay.

Where a SMILES comes first, the peptide text is derived from it. The star is where a group is joined. Cbz = O=C(OCc1ccccc1)*

With Arg-Arg-Arg-Gly (RRRG) [Bonger degron], in the assay with CAR-SZ17 fusion, the “reduction of CAR expression” value is listed as “over 90%”. Take `CC(C)C[C@@H](C=O)NC(=O)[C@H](CC(C)C)NC(=O)[C@H](CC(C)C)NC(=O)OCc1ccccc1` [MG-132] (Cbz-Leu-Leu-Leu-aldehyde): the “GFP fluorescence relative to DMSO vehicle control” value in assay [1] is on record as “rescued”. Moreover, in the assay with proteasome, the “change in GFP fluorescence over time” value is “increase in GFP fluorescence”.

As to `NS(=O)(=O)OC[C@@H]1C[C@@H](n2ccc3c(N[C@H]4CCc5ccccc54)ncnc32)C[C@@H]1O` [MLN4924], the “GFP fluorescence relative to DMSO vehicle control” value in assay [1] is reported as “rescued”. In addition, the “specific target cell lysis” value in the assay with NALM6 target cells is on record as “dose dependent”. Moreover, in the assay on cullin ring ligase, the “CAR expression (CAR fluorescence by antibody stain)” value is “rescue STUD knockdown of CAR expression”. Compound “SynZIP18(K->R)-5xGS-RRRG (designed binder)” yielded a median normalized GFP fluorescence (flow cytometry, Jurkat T cells), fold change with GFP-SZ17 [GFP: P42212] of 42 fold. As to `CO/C1=C\C(C)=C\[C@@H](C)[C@@H](O)[C@@H](C)C/C(C)=C/C=C/[C@H](OC)[C@@H]([C@@H](C)[C@@H](O)[C@H](C)[C@@]2(O)C[C@@H](O)[C@H](C)[C@@H](C(C)C)O2)OC1=O` [Bafilomycin A1], the “GFP fluorescence relative to DMSO vehicle control” value in assay [1] is on record as “No changes to GFP fluorescence”.

The values are drawn from US20250092419A1, “SYNTHETIC TARGETERS OF UBIQUITINATION AND DEGRADATION (STUDS) AS EFFECTORS FOR FEEDBACK CONTROL IN MAMMALIAN CELLS” (The Regents of the University of California, priority 2022, published 2025).
